Assay results published in US20100292229A1, “TRYPHOSTIN-ANALOGS FOR THE TREATMENT OF CELL PROLIFERATIVE DISEASES” (The Board of Regents of the University of Texas System, priority 2006, published 2010).

Legend:
[1] = tested on: BV-173R cells (T315I BCR-ABL); experiment: MTT assay after 72 h, BV-173R cells; type: cell-based, human; conditions: 72 h of drug incubation
BCR-ABL (T315I) = molecular target: T1, BCR-ABL (T315I) (Homo sapiens, UniProt P00519, T315I); experiment: pBCR-ABL and BCR-ABL immunoblot in BV-173R cells; type: cell-based; set-up: dose or concentration left out as unconfirmed; conditions: 1 h
T1 construct: endogenous in cells; host or cells: BV-173R; the other entry of the earlier key: BCR (P11274, Breakpoint cluster region protein)
Procedure: Actin was probed as protein loading control.
Western Blot analysis. […] Western blotting was performed using specific primary antibodies Peroxidase-conjugated affiniPure anti-Mouse Anti-Rabbit secondary antibodies (Jackson Immunoresearch Laboratories, West Grove, Pa.). The proteins were visualized with ECL Plus reagents (Amersham Biosciences).

nucleophosmin (NPM) = molecular target: T2, nucleophosmin (NPM) (Homo sapiens, UniProt P06748); experiment: Affinity recovery of Degrasyn interactive proteins with streptavidin beads; type: binding; conditions: MM-1 or K562 cell lysates
T2 construct: endogenous in cells; host or cells: MM-1 and K562 cell lysates
Procedure: Biotinylated-Degrasyn (10 μM) was incubated with lysates from MM-1 cells (10 mg total protein) and interactive proteins were assessed by affinity recovery using Streptavidin-conjugated beads to bind biotinylated-Degrasyn. Free Degrasyn (10 μM) was incubated with biotinylated-Degrasyn in a parallel experiment to assist in identifying specific protein:Degrasyn interactions. Affinity complexes were washed and Streptavidin-Bio-Deg interaction proteins were assessed by disrupting protein complexes with SDS-sample buffer and resolving proteins by SDS-PAGE. The resolved proteins were detected by silver-staining the gel. Protein bands present in the biotinylated-Degrasyn sample that were absent in samples co-incubated with free Degrasyn were identified and cut from the gel. A 38 kDa protein band was prominent in this assessment and was subjected to in gel trypsinization and identification of HPLC resolved tryptic peptides by tandem mass spectroscopy analysis (David Hawke, Department of Molecular Pathology, M.D. Anderson Cancer Center). This analysis identified nucleophosmin (NPM) as a Degrasyn interactive protein.
To further assess the interaction between NPM and Degrasyn, biotinylated-Degrasyn/streptavidin beads were incubated with MM-1 (left) or K562 (right) cell lysates. In parallel, lysates were co-incubated with free Degrasyn to determine the specificity of the interaction with NPM. […]

T2 sequence (P06748 whole entry): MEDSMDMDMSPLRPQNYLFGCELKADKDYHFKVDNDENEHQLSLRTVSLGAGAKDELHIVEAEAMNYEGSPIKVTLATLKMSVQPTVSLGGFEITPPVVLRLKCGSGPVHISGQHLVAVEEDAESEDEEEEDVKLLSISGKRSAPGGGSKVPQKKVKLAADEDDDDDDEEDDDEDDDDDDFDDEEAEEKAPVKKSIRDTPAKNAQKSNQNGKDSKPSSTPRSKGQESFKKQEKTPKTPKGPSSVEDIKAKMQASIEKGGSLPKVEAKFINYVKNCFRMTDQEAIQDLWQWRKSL

CCC[C@H](NC(=O)/C(C#N)=C/c1cccc(Br)n1)c1ccccc1 [Degrasyn]
Activity in MTT assay, BV-173R vs BV-173 [1]: equally active against both cell types
pBCR-ABL and BCR-ABL protein levels, BV-173R (BCR-ABL (T315I)): reduced BCR-ABL protein levels in both w/t and mutant BCR-ABL expressing cells
Interaction with NPM (nucleophosmin (NPM)): interacts with NPM
